Measurements as given in ChEMBL document CHEMBL1201862, “PubChem BioAssay data set” (2004).
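Test compounds were applied to cells in 96-well plates for 48 hours at 5 doses. GI50 is the concentration that inhibits growth by half.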 Activity calls are given as the source filed them. No stated cut-off is given here; in the data, active = GI50 up to about 1.1 µM and inactive = higher.

Experiments:
Experiment in all cases: NCI tumour cell line growth inhibition, 48 h
NCI-H23 = test system: NCI-H23
OVCAR-4 = test system: OVCAR-4
SF-539 = test system: SF-539
NCI-H522 = test system: NCI-H522
OVCAR-8 = test system: OVCAR-8
HCC 2998 = test system: HCC 2998
SK-MEL-28 = test system: SK-MEL-28
HCT-116 = test system: HCT-116
M14 = test system: M14
UO-31 = test system: UO-31
SF-295 = test system: SF-295
SNB-75 = test system: SNB-75
LOX IMVI = test system: LOX IMVI
SR = test system: SR

Measured: GI50

Cc1cccc(C)c1NC(=O)CCc1n[nH]c(=S)o1
inactive: NCI-H23 > 100 µM | OVCAR-4 > 100 µM | SF-539 > 100 µM | NCI-H522 > 100 µM | OVCAR-8 > 100 µM | HCC 2998 > 100 µM | SK-MEL-28 > 100 µM | HCT-116 20.4 µM | M14 > 100 µM | UO-31 > 100 µM | SF-295 > 100 µM | SNB-75 > 100 µM

CC(C)(C)C(=O)OC12/C(=N/O)CCCCCC1c1ccccc12 (centres undefined)
inactive: NCI-H23 16.6 µM | OVCAR-4 18.9 µM | LOX IMVI 14.3 µM | SF-539 23.2 µM | NCI-H522 17.8 µM | OVCAR-8 19.3 µM | HCC 2998 > 100 µM | SK-MEL-28 18.5 µM | HCT-116 14.4 µM | M14 16.9 µM | UO-31 17.1 µM | SF-295 15.6 µM | SNB-75 14.5 µM

COc1ccc(C(=O)C(C(=O)C(=O)Nc2ccc(Cl)c(Cl)c2)c2ccc(OC)cc2)cc1 (centres undefined)
inactive: NCI-H23 > 100 µM | OVCAR-4 > 100 µM | LOX IMVI > 100 µM | SF-539 > 100 µM | OVCAR-8 > 100 µM | HCC 2998 > 100 µM | SK-MEL-28 > 100 µM | HCT-116 > 100 µM | M14 > 100 µM | UO-31 > 100 µM | SF-295 > 100 µM | SNB-75 57.5 µM

CC(=O)OC1C(CCl)OC(N=[N+]=[N-])C(OC(C)=O)C1OC(C)=O (centres undefined)
inactive: NCI-H23 > 100 µM | OVCAR-4 > 100 µM | SF-539 > 100 µM | NCI-H522 > 100 µM | OVCAR-8 > 100 µM | HCC 2998 > 100 µM | SK-MEL-28 > 100 µM | HCT-116 > 100 µM | M14 > 100 µM | UO-31 > 100 µM | SF-295 > 100 µM | SNB-75 > 100 µM

O=C1CCN2C(=Nc3cccc4cccc2c34)N1
inactive: NCI-H23 > 100 µM | OVCAR-4 > 100 µM | LOX IMVI > 100 µM | SF-539 > 100 µM | OVCAR-8 > 100 µM | SR > 100 µM | HCC 2998 > 100 µM | SK-MEL-28 > 100 µM | HCT-116 > 100 µM | M14 > 100 µM | UO-31 73.8 µM | SNB-75 76.9 µM

CP(C)C.[Ag][I]
inactive: NCI-H23 85.3 µM | OVCAR-4 18.2 µM | LOX IMVI 25.5 µM | SF-539 > 100 µM | OVCAR-8 50 µM | SR > 100 µM | HCC 2998 > 100 µM | SK-MEL-28 61.9 µM | HCT-116 58.3 µM | M14 > 100 µM | UO-31 > 100 µM | SF-295 > 100 µM | SNB-75 20 µM

CN(C)C(=S)/N=c1\ssc(=S)n1-c1ccccc1
inactive: NCI-H23 24.2 µM | OVCAR-4 15.9 µM | SF-539 16.8 µM | NCI-H522 14.5 µM | OVCAR-8 15.2 µM | HCC 2998 19.6 µM | SK-MEL-28 16.7 µM | HCT-116 13.7 µM | M14 15 µM | UO-31 23.3 µM | SF-295 24.2 µM | SNB-75 17.4 µM

CCCCNC1=C(C(=O)OCC)C(=O)CO1
inactive: NCI-H23 > 100 µM | OVCAR-4 > 100 µM | LOX IMVI > 100 µM | SF-539 > 100 µM | NCI-H522 > 100 µM | OVCAR-8 > 100 µM | HCC 2998 > 100 µM | SK-MEL-28 > 100 µM | M14 > 100 µM | UO-31 > 100 µM | SF-295 > 100 µM | SNB-75 80.2 µM

O=C(Cc1nc2ccccc2s1)C(=O)Nc1ccc(Cl)cc1Cl
inactive: NCI-H23 54 µM | OVCAR-4 > 100 µM | LOX IMVI > 100 µM | SF-539 > 100 µM | OVCAR-8 > 100 µM | SR > 100 µM | HCC 2998 > 100 µM | SK-MEL-28 > 100 µM | HCT-116 > 100 µM | M14 > 100 µM | UO-31 > 100 µM | SF-295 > 100 µM | SNB-75 47.4 µM

COc1cccc(/C=C(/C(=O)O)c2cc(OC)c(OC)c(OC)c2)c1
inactive: OVCAR-4 > 100 µM | LOX IMVI > 100 µM | SF-539 > 100 µM | NCI-H522 > 100 µM | OVCAR-8 > 100 µM | SK-MEL-28 > 100 µM | HCT-116 > 100 µM | M14 > 100 µM | UO-31 > 100 µM | SF-295 > 100 µM | SNB-75 > 100 µM

COc1ccc2[nH]cc(CCNC(C)=O)c2c1 [MELATONIN]
inactive: NCI-H23 > 100 µM | OVCAR-4 > 100 µM | LOX IMVI 39.8 µM | SF-539 > 100 µM | NCI-H522 > 100 µM | OVCAR-8 > 100 µM | SK-MEL-28 > 100 µM | HCT-116 > 100 µM | M14 > 100 µM | UO-31 > 100 µM | SF-295 > 100 µM | SNB-75 > 100 µM
